Source: PMC4772543, “Immune responses to Mycobacterial heat shock protein 70 accompany self-reactivity to human BiP in rheumatoid arthritis” (Scientific Reports, 2016)

Tests used:
[1] = tested on: HLA-DR4-positive HD PBMCs; assay: Proliferation of healthy donor PBMCs in response to peptide (3H-thymidine uptake); assay type: cell-based, human; conditions: HLA-DR4-positive healthy donors (SE +/− n = 10), peptide 10 μg/mL
Method: (§1) Figure 3 MycHSP70_287–306 was a HLA-DR4-restricted epitope in RA. (A) The proliferation of PBMCs in RA patients (Shared epitope (SE) +/+ n = 12, SE +/− n = 22, SE−/− n = 9) and HDs (SE +/− n = 10) in response to MycHSP70_287–306. Proliferation was determined by the incorporation of [3]-H thymidine. The stimulation index (SI) was calculated using the following equation: (median thymidine uptake to an antigen)/(median thymidine uptake in the absence of an antigen). Horizontal line: the median. (B) Amino acid sequences of MycHSP70 (lower lines) and human BiP (upper lines) near the epitopes. Epitope sequences are indicated in bold letters. […]
(§2) PBMCs (1 × 10^6/mL) isolated with Ficoll-Paque (GE Healthcare) were cultured in the presence or absence of each peptide (10 μg/mL) with RPMI 1640 medium supplemented with 10% human serum, 2 mM L-glutamine, 100 U/ml penicillin, and 100 μg/ml streptomycin in a humidified incubator at 37 °C, 5% CO2, for 96 hours. […] Counts per minute were measured with a scintillation counter. In some experiments, the culture supernatants were collected after a 72-hour incubation and cytokine concentrations were measured in the culture supernatants by a human IFN-γ high sensitivity ELISA kit and human IL-17 high sensitivity ELISA kit (eBioscience). […]

[2] = tested on: PBMCs from shared epitope (SE)-positive RA patients; assay: Proliferation of PBMCs from RA patients in response to MycHSP70-derived peptides (3H-thymidine uptake); assay type: cell-based, human
Method: as §1, §2

[3] = tested on: splenic CD4+ T cells from CIA-induced DBA/1 J mice; assay: Splenic CD4+ T cell recall culture from CIA mice after oral peptide (proliferation, cytokine ELISA); assay type: cell-based, mouse
Method: (A,B) The MycHSP70_287–306 peptide or control (PBS alone) was orally administered to bovine type II collagen-immunized DBA/1 J mice after the occurrence of CIA for 5 continuous days (n = 12). Mice were sacrificed on day 35. Arthritis scores were measured by finger and paw swelling, and histological scores were measured by cell infiltration (C), pannus formation (P), and bone destruction (B). (C) Splenic CD4^+ T cell proliferation from CIA-induced DBA/1 J mice in response to a recall antigen (Ag) stimulation (MycHSP70_287–306 and BiP336–355 epitopes, and heat-denatured bovine type II collagen (BC II)). Proliferation was determined by[3]-H thymidine incorporation. (D) Serum anti-BiP and anti-BC II antibody titers were measured by ELISA. (E,F) Mouse IL-10 and TGF-beta1 concentrations in the splenic CD4^+ T cell culture were measured by ELISA.
HLA-DR4 transgenic mice were obtained from Taconic, immunized twice (day 0, 14) with 100 μg of MycHSP70 with the same volume of complete Freund’s adjuvant subcutaneously into the tails, and sacrificed on day 21. MACS-purified CD4^+ T cells (1 × 10^5/mL) were cultured with irradiated splenocytes (1 × 10^6/mL) and an antigen (10 μg/mL) in RPMI 1640 medium supplemented with 5% FCS, 2 mM L-glutamine, 100 U/ml penicillin, 100 μg/ml streptomycin, and 5 × 10^−5 M 2-mercaptoethanol in a humidified incubator at 37 °C, 5% CO2, for 72 h. ^3H-thymidine was pulsed to each well, cells were harvested after an 18-hour incubation, and analyzed with a scintillation counter.
CIA in the background of DBA/1 J female mice (SLC Japan) was performed and arthritis scores were acquired as previously described. In the therapeutic experiments, mice were administered 200 μg of MycHSP287–306 peptides orally for 5 continuous days following the onset of arthritis. Mice were sacrificed on day 35, and the CD4^+ T cell culture was performed as described above. Mouse cytokine concentrations in the supernatants were measured using a mouse IL-10 ELISA kit and mouse/human TGF-beta 1 ELISA kit (eBioscience) according to the manufacturer’s protocol. Tissue samples were embedded in paraffin wax after 10% formaldehyde fixation and decalcification. Sections were stained with hematoxylin and eosin. Synovial tissues were graded by mononuclear cell infiltration, pannus formation, and cartilage erosion, as described previously. All animal experiments were conducted in accordance with Institutional and National Guidelines, and the protocols were approved by the Ethical Committee on Animal Experiments of the University of Tokyo. […]
The experimental protocol was the same as Figure 6.
(A)(B)Mouse IL-17 and IFN-gamma concentrations in the splenic CD4+ T cell
culture was measured by ELISA (Mouse cytokine ELISA ready-set-go,
eBioscience) according to the manufacture’s protocol. […]

[4] = MycHSP70_287–306 and BiP336–355 recall stimulations, peptide-treated mice, ELISA
[5] = mice given MycHSP70_287–306 orally vs PBS, 3H-thymidine

For DRTRKPFQSVIADTGISVSE [MycHSP70_287–306], the “peptide-induced proliferation of HD PBMCs” value [1] was “not observed”, the “peptide-induced PBMC proliferation under blockade of HLA-DR” value ([2]; HLA-DR4-positive RA patients n = 6, anti-HLA DR monoclonal antibody (L243) 10 μg/mL) was “clearly inhibited” and the “proliferation of PBMCs, mean stimulation index” value ([2]; screen of 43 MycHSP70-derived 20-mer peptides, 10 μg/mL, 96 hours, 3H-thymidine uptake, HLA-DR4-positive RA patients n = 20) was “highest proliferative responses”. For the same sequence, the “secretion of IL-10 from CD4+ T cells” value [3, 4] was “induced”, the “secretion of TGF-β1 from CD4+ T cells” value [3, 4] was “induced” and the “proliferation of CD4+ T cells in response to BiP336–355 recall” value [3, 5] was “reduced”. For the same sequence, the “proliferation of CD4+ T cells in response to MycHSP70_287–306 recall” value [3, 5] was “reduced”, the “bovine type II collagen-specific T cell proliferation” value ([3]; mice given MycHSP70_287–306 orally vs PBS, heat-denatured BC II recall) was “suppressed” and the “pro-inflammatory cytokine secretion from CD4+ T cells” value ([3]; mouse IL-17 and IFN-gamma by ELISA, mice given peptide orally vs PBS (Supplementary Figure S2)) was “suppressed”.
